Measured values published in the kinase profiling compilation of Christmann-Franck et al. (2016).

Assays:
Assay in all cases: radiometric filter-binding kinase assay
[1] = molecular target: RPS6KA1 KD1 KD2 (human) (UniProt Q15418)
[2] = molecular target: IRAK4 (human) (UniProt Q9NWZ3)
[3] = molecular target: MARK2 (human) (UniProt Q7KZI7)
[4] = tested on: SGK1 (human), O00141 [S422D]
[5] = molecular target: PIM1 (human) (UniProt P11309)
[6] = molecular target: TTK (human) (UniProt P33981)
[7] = molecular target: EPHB2 (human) (UniProt P29323)
[8] = molecular target: MAPKAPK2 (human) (UniProt P49137)
[9] = molecular target: MAPK12 (human) (UniProt P53778)
[10] = molecular target: EPHB1 (human) (UniProt P54762)
[11] = tested on: RPS6KB1 (human), P23443 [T412E]
[12] = molecular target: EPHB4 (human) (UniProt P54760); conditions: compound 1.0 µM
[13] = molecular target: DYRK2 (human) (UniProt Q92630)
[14] = molecular target: HIPK2 (human) (UniProt Q9H2X6)
[15] = molecular target: MARK1 (human) (UniProt Q9P0L2)
[16] = molecular target: MELK (human) (UniProt Q14680)
[17] = molecular target: CHEK2 (human) (UniProt O96017); conditions: compound 10.0 µM
[18] = molecular target: CLK2 (human) (UniProt P49760)
[19] = molecular target: PRKCA (human) (UniProt P17252)
[20] = molecular target: FLT1 (human) (UniProt P17948)
[21] = molecular target: MYLK (human) (UniProt Q15746); conditions: compound 1.0 µM
[22] = molecular target: NEK2 (human) (UniProt P51955)
[23] = molecular target: PKN2 (human) (UniProt Q16513)
[24] = molecular target: MAPKAPK5 (human) (UniProt Q8IW41)
[25] = molecular target: TAOK1 (human) (UniProt Q7L7X3)
[26] = molecular target: IKBKE (human) (UniProt Q14164); conditions: compound 10.0 µM
[27] = molecular target: MAPK14 (human) (UniProt Q16539)
[28] = molecular target: MAP3K7 TAB1 (human) (UniProt Q15750+O43318)
[29] = molecular target: STK3 (human) (UniProt Q13188)
[30] = molecular target: EPHA2 (human) (UniProt P29317)
[31] = tested on: ROCK2 (rat); conditions: accession and sequence are those of the human protein
[32] = molecular target: DAPK1 (human) (UniProt P53355)
[33] = molecular target: PIM3 (human) (UniProt Q86V86)
[34] = molecular target: DYRK3 (human) (UniProt O43781); conditions: compound 1.0 µM
[35] = molecular target: GCK (human) (UniProt Q12851)
GCK (human), sequence (Q12851 whole entry, looked up): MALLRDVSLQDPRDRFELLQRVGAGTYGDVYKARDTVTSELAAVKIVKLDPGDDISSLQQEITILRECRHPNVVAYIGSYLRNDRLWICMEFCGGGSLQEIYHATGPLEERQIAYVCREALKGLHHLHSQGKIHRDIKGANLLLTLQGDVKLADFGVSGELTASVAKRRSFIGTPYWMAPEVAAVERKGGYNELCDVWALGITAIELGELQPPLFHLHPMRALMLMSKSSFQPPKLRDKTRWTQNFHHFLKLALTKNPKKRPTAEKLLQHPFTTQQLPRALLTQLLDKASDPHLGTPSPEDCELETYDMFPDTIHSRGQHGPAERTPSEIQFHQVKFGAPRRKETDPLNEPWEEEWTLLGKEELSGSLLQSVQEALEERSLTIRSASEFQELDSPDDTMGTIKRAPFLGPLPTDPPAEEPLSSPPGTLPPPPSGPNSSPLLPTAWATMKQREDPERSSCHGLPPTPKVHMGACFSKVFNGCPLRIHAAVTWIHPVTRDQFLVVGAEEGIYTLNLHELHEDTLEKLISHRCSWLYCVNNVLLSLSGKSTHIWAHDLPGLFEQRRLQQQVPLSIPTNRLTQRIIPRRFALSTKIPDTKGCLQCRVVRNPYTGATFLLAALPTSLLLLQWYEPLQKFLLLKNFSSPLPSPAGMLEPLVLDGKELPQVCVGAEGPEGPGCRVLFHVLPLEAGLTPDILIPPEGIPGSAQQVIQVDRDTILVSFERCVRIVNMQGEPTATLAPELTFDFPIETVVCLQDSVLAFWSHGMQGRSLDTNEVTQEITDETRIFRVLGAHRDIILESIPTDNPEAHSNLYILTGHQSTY

MARK1 (human), sequence (Q9P0L2 whole entry, looked up): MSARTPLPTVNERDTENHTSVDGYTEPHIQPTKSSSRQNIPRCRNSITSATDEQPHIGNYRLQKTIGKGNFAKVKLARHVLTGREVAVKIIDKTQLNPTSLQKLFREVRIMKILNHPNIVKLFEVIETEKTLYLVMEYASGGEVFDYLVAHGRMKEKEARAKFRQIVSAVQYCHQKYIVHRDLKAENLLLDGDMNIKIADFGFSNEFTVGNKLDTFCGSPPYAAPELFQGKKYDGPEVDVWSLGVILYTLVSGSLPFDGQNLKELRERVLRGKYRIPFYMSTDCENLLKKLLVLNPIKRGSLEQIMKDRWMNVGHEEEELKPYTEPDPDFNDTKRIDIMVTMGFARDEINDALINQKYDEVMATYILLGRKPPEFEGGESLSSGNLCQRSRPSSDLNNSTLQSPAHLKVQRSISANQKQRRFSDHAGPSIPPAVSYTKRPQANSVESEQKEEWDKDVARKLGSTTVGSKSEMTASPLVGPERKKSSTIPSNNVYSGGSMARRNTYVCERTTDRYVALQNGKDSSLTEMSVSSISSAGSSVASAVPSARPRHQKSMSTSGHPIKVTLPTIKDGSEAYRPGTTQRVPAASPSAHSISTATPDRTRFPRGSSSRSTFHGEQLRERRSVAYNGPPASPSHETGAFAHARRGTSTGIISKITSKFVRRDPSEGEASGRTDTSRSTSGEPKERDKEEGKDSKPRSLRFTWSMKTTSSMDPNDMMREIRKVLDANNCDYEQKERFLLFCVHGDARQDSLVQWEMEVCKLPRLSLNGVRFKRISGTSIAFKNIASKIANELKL
MAPKAPK5 (human), sequence (Q8IW41 whole entry, looked up): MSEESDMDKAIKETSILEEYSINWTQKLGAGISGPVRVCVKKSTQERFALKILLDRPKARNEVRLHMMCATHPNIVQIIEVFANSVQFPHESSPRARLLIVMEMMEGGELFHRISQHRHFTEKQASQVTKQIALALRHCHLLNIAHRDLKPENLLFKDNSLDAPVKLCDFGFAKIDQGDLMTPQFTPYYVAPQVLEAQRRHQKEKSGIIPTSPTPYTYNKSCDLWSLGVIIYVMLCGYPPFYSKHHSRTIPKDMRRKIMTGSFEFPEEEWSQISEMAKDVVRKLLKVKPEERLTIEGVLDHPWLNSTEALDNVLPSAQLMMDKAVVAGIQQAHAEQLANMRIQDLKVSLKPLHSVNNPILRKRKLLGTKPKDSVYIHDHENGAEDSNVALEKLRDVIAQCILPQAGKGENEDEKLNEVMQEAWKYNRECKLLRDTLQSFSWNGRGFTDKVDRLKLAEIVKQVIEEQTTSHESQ
MAPK14 (human), sequence (Q16539 whole entry, looked up): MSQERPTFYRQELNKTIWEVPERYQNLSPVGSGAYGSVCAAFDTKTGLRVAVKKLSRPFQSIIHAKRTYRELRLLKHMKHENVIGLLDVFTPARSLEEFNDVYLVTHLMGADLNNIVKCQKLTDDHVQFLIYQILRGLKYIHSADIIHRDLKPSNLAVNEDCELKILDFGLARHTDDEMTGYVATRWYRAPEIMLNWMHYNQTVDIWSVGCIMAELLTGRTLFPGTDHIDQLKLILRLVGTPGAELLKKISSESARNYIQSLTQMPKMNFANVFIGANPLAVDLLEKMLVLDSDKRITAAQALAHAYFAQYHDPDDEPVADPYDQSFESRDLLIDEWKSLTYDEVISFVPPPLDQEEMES
RPS6KA1 KD1 KD2 (human), sequence (Q15418 whole entry, looked up): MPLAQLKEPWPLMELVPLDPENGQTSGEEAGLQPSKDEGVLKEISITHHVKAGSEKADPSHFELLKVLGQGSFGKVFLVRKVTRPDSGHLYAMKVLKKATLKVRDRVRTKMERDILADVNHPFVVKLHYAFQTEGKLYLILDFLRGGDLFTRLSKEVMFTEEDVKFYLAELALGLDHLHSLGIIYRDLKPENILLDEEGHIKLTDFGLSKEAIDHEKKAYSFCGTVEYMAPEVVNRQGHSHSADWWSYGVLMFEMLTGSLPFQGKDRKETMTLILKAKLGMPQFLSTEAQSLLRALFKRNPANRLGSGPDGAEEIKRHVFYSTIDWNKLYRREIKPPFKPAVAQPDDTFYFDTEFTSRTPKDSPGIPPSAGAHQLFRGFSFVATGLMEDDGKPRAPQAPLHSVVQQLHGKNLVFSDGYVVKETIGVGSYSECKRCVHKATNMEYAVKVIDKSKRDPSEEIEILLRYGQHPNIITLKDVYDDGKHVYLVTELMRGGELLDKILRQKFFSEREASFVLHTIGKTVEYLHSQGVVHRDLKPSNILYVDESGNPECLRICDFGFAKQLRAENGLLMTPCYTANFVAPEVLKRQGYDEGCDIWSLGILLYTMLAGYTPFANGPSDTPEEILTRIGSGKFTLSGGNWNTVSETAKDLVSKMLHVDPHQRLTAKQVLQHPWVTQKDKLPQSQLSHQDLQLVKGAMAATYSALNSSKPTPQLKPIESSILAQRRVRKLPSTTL
HIPK2 (human), sequence (Q9H2X6 whole entry, looked up): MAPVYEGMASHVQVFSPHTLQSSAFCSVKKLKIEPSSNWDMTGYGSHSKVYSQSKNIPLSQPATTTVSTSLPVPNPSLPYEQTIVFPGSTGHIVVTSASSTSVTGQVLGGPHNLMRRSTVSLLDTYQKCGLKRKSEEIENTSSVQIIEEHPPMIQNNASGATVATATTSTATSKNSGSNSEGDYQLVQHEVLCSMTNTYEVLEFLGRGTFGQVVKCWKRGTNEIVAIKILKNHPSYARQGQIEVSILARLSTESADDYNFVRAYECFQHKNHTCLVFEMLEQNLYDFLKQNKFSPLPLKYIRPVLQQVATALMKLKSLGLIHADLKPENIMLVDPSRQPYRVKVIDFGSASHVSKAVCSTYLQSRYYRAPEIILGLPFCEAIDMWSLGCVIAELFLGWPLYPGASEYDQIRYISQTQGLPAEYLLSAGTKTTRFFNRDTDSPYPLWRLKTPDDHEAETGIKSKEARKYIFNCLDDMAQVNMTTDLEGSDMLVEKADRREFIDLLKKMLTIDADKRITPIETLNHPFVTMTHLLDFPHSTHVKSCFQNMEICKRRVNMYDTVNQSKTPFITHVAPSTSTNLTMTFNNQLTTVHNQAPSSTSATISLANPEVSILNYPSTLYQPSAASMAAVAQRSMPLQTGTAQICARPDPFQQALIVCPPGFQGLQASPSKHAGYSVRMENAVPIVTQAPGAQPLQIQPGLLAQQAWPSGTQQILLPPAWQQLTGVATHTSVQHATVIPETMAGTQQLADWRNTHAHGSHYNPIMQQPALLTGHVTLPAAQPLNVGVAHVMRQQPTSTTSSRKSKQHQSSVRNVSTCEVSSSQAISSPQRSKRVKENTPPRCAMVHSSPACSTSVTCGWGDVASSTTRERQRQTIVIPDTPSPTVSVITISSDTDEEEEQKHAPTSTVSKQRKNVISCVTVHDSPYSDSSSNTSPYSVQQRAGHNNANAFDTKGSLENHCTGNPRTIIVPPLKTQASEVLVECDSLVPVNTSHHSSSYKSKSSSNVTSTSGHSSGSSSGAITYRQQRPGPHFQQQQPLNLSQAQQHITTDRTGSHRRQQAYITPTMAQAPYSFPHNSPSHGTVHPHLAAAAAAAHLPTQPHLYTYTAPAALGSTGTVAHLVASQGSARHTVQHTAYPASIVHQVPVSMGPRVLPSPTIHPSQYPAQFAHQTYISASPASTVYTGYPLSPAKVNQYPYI
MAPK12 (human), sequence (P53778 whole entry, looked up): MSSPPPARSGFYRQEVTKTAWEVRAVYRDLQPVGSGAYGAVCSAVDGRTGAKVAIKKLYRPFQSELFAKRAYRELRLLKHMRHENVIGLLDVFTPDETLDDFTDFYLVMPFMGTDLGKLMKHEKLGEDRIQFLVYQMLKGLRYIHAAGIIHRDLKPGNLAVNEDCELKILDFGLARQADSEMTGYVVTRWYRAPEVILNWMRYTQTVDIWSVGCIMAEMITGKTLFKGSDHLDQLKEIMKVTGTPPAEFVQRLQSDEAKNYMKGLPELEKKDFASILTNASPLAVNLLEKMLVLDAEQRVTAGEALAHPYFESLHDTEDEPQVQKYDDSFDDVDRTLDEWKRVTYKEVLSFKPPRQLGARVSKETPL

residual activity ([1]; compound 1.0 µM): 87%
residual activity ([1]; compound 10.0 µM): 63%
residual activity ([2]; compound 1.0 µM): 84%
residual activity ([2]; compound 10.0 µM): 79%
residual activity ([3]; compound 1.0 µM): 94%
residual activity ([3]; compound 10.0 µM): 89%
residual activity ([4]; compound 1.0 µM): 71%
residual activity ([4]; compound 10.0 µM): 30%
residual activity ([5]; compound 1.0 µM): 92%
residual activity ([5]; compound 10.0 µM): 94%
residual activity ([6]; compound 1.0 µM): 90%
residual activity ([6]; compound 10.0 µM): 86%
residual activity ([7]; compound 1.0 µM): 82%
residual activity ([7]; compound 10.0 µM): 91%
residual activity ([8]; compound 1.0 µM): 91%
residual activity ([8]; compound 10.0 µM): 95%
residual activity ([9]; compound 1.0 µM): 94%
residual activity ([9]; compound 10.0 µM): 70%
residual activity ([10]; compound 1.0 µM): 72%
residual activity ([10]; compound 10.0 µM): 67%
residual activity ([11]; compound 1.0 µM): 86%
residual activity ([11]; compound 10.0 µM): 21%
residual activity [12]: 116%
residual activity ([13]; compound 1.0 µM): 89%
residual activity ([13]; compound 10.0 µM): 121%
residual activity ([14]; compound 1.0 µM): 88%
residual activity ([14]; compound 10.0 µM): 69%
residual activity ([15]; compound 1.0 µM): 87%
residual activity ([15]; compound 10.0 µM): 79%
residual activity ([16]; compound 1.0 µM): 92%
residual activity ([16]; compound 10.0 µM): 75%
residual activity [17]: 76%
residual activity ([18]; compound 1.0 µM): 93%
residual activity ([18]; compound 10.0 µM): 64%
residual activity ([19]; compound 1.0 µM): 94%
residual activity ([19]; compound 10.0 µM): 90%
residual activity ([20]; compound 1.0 µM): 79%
residual activity ([20]; compound 10.0 µM): 89%
residual activity [21]: 109%
residual activity ([22]; compound 1.0 µM): 96%
residual activity ([22]; compound 10.0 µM): 92%
residual activity ([23]; compound 1.0 µM): 85%
residual activity ([23]; compound 10.0 µM): 63%
residual activity ([24]; compound 1.0 µM): 89%
residual activity ([24]; compound 10.0 µM): 76%
residual activity ([25]; compound 1.0 µM): 103%
residual activity ([25]; compound 10.0 µM): 92%
residual activity [26]: 101%
residual activity ([27]; compound 1.0 µM): 100%
residual activity ([27]; compound 10.0 µM): 80%
residual activity ([28]; compound 1.0 µM): 74%
residual activity ([28]; compound 10.0 µM): 36%
residual activity ([29]; compound 1.0 µM): 106%
residual activity ([29]; compound 10.0 µM): 81%
residual activity ([30]; compound 1.0 µM): 92%
residual activity ([30]; compound 10.0 µM): 94%
residual activity ([31]; compound 1.0 µM): 88%
residual activity ([31]; compound 10.0 µM): 87%
residual activity ([32]; compound 1.0 µM): 95%
residual activity ([32]; compound 10.0 µM): 43%
residual activity ([33]; compound 1.0 µM): 99%
residual activity ([33]; compound 10.0 µM): 64%
residual activity [34]: 108%
residual activity ([35]; compound 1.0 µM): 107%
residual activity ([35]; compound 10.0 µM): 92%
SMILES: NCC(=O)Nc1ccc(-n2nc(C(F)(F)F)cc2-c2ccc3c(ccc4ccccc43)c2)cc1
